From publication PMC9851200, “Multiparameter phenotypic screening for endogenous TFEB and TFE3 translocation identifies novel chemical series modulating lysosome function” (Autophagy, 2022) come the findings set out here.

Structures are written as SMILES. Like-named read-outs stand apart in the source and are kept apart here.

Series [1] has as its system SH-SY5Y cells.
From the text: The PKIS2 Library was supplied by The Structural Genomics Consortium at the University of North Carolina at Chapel Hill.
The next series relates to endogenous TFE3. As to the kind of experiment: TFE3 nuclear translocation, immunocytochemistry high-content imaging. In kind it is cell-based.
For a further series, the system named is endogenous TFEB. In words: TFEB nuclear translocation, immunocytochemistry high-content imaging. Format: cell-based.
For series [2], the system named is SH-SY5Y cells. In words: Nuclear count from microscopy images (cellular growth and toxicity). Note: reference of the scale not given here.
In series [3] the test system is SH-SY5Y cells. As to the kind of experiment: AK (adenylate kinase) release ToxiLight cytotoxicity assay. Note: reference of the scale not given here.
The mark [4] stands for this setting: PKIS2 primary screening, DQ Red BSA intensity.
Where [5] appears, read: PKIS2 primary screening, DQ Red BSA spot count.
Throughout, for DQ Intensity: reference of the scale not given here.
Throughout, for DQ Spot: reference of the scale not given here.

As for `Cc1ccc(-c2cc(-c3c[nH]nc3-c3ccccn3)ccn2)cc1` [UNC10225125A], in the series on SH-SY5Y cells [1] (setting [4]), the “DQ Intensity” value amounted to 86.68. In the series on SH-SY5Y cells [1] (setting [5]), the “DQ Spot” value amounted to 93.68. Also, the TFE3 % in the series on endogenous TFE3 (PKIS2 primary screening) was found to be 5.68%. The compound also returned a TFEB % with endogenous TFEB (PKIS2 primary screening) of 3.15%. Moreover, the “Nuclear Count” value in the series with SH-SY5Y cells [2] (PKIS2 primary screening) is given as 147.86. The AK in the series on SH-SY5Y cells [3] (PKIS2 primary screening) stood at 116.20.
`Nc1nc(-c2nccs2)c(-c2ccnc3ccccc23)s1` [UNC10225429A]: the “DQ Intensity” value with SH-SY5Y cells [1] (setting [4]) amounted to 102.85. In the series on SH-SY5Y cells [1] (setting [5]), the “DQ Spot” value was found to be 117.25. The same compound registered a TFE3 % in the series on endogenous TFE3 (PKIS2 primary screening) of 19.15%. Moreover, the TFEB % in the series on endogenous TFEB (PKIS2 primary screening) is 3.83%. Also, the “Nuclear Count” value in the series on SH-SY5Y cells [2] (PKIS2 primary screening) turned out to be 118.67. Moreover, in the series on SH-SY5Y cells [3] (PKIS2 primary screening), the AK amounted to 94.26.
Regarding `Nc1nc(-c2ccc3c(N)n[nH]c3c2)cc(N2CCCC2)n1` [GSK2227430], the “DQ Intensity” value in the series on SH-SY5Y cells [1] (setting [4]) amounted to 87.93. The “DQ Spot” value in the series on SH-SY5Y cells [1] (setting [5]) is reported as 104.79. The same compound displayed a TFE3 % with endogenous TFE3 (PKIS2 primary screening) of 14.08%. In the series with endogenous TFEB (PKIS2 primary screening), this compound yielded a TFEB % of 3.47%. Besides, the “Nuclear Count” value in the series on SH-SY5Y cells [2] (PKIS2 primary screening) is recorded as 85.02. In the series on SH-SY5Y cells [3] (PKIS2 primary screening), this compound gave an AK of 104.62.
Consider `COc1ccc(Nc2nccc(N3CCC(NC(=O)Nc4cccc(OC)c4)C3)n2)cc1` (stereo not drawn) [GSK1379742], for which the “DQ Intensity” value in the series on SH-SY5Y cells [1] (setting [4]) was determined as 119.16. The “DQ Spot” value in the series on SH-SY5Y cells [1] (setting [5]) is listed as 99.38. In addition, the TFE3 % with endogenous TFE3 (PKIS2 primary screening) is recorded as 16.87%. In addition, the TFEB % in the series with endogenous TFEB (PKIS2 primary screening) came to 8.93%. For the same compound, the “Nuclear Count” value with SH-SY5Y cells [2] (PKIS2 primary screening) is 103.65. In the series on SH-SY5Y cells [3] (PKIS2 primary screening), this compound returned an AK of 126.78.
Consider `NCCC(NC(=O)c1cc(Br)c(-c2ccnc3[nH]ccc23)s1)c1ccccc1.O=C(O)C(F)(F)F.O=C(O)C(F)(F)F` (stereo not drawn) [UNC10225503A], for which the “DQ Intensity” value in the series with SH-SY5Y cells [1] (setting [4]) was 126.00. Moreover, the “DQ Spot” value with SH-SY5Y cells [1] (setting [5]) is recorded as 127.76. For the same compound, the TFE3 % in the series on endogenous TFE3 (PKIS2 primary screening) is given as 15.14%. For the same compound, the TFEB % in the series with endogenous TFEB (PKIS2 primary screening) is recorded as 3.19%. In the series with SH-SY5Y cells [2] (PKIS2 primary screening), the “Nuclear Count” value worked out at 121.43. This compound showed an AK in the series with SH-SY5Y cells [3] (PKIS2 primary screening) of 81.01.
In the case of `Nc1nc(-c2ccccn2)c(-c2ccnc3ccccc23)s1` [UNC10225201A], the “DQ Intensity” value with SH-SY5Y cells [1] (setting [4]) was 97.54. In addition, the “DQ Spot” value with SH-SY5Y cells [1] (setting [5]) amounted to 92.32. In addition, in the series on endogenous TFE3 (PKIS2 primary screening), the TFE3 % was found to be 10.28%. In the series on endogenous TFEB (PKIS2 primary screening), this compound had a TFEB % of 4.25%. In addition, the “Nuclear Count” value with SH-SY5Y cells [2] (PKIS2 primary screening) amounted to 144.30. Moreover, in the series on SH-SY5Y cells [3] (PKIS2 primary screening), the AK amounted to 81.66.
With `O=c1[nH]cc(-c2ccc(O)cc2)c2sc(-c3ccncc3)cc12` [UNC10225166A], in the series on SH-SY5Y cells [1] (PKIS2 primary screen, DQ Red BSA intensity), the “DQ Intensity” value is reported as 80.95. In the series with SH-SY5Y cells [1] (PKIS2 primary screen, DQ Red BSA spot count), the “DQ Spot” value is on record as 75.27. Further, the TFE3 % in the series with endogenous TFE3 (PKIS2 primary screen) came to 6.08%. This compound also showed a TFEB % with endogenous TFEB (PKIS2 primary screen) of 3.69%. Moreover, the “Nuclear Count” value with SH-SY5Y cells [2] (PKIS2 primary screen) is recorded as 145.07. In the series on SH-SY5Y cells [3] (PKIS2 primary screen), the AK amounted to 95.26.
As to `C[C@@H]1CC[C@H](C(=O)NC2CCCCC2)CN1c1cc(-c2ccc3c(N)n[nH]c3c2)nc(N)n1` [GSK2291363], the “DQ Intensity” value in the series on SH-SY5Y cells [1] (setting [4]) came to 117.06. Further, in the series on SH-SY5Y cells [1] (setting [5]), the “DQ Spot” value was found to be 112.54. The TFE3 % with endogenous TFE3 (PKIS2 primary screening) is listed as 16.02%. In the series on endogenous TFEB (PKIS2 primary screening), this compound had a TFEB % of 3.73%. The “Nuclear Count” value with SH-SY5Y cells [2] (PKIS2 primary screening) is on record as 117.58. Further, in the series on SH-SY5Y cells [3] (PKIS2 primary screening), the AK is 87.12.
Regarding `CCn1c(-c2ccoc2)nc2cnccc21` [UNC10225474A], in the series with SH-SY5Y cells [1] (PKIS2 primary screening), the “DQ Intensity” value is on record as 148.88 and the “DQ Spot” value is recorded as 113.44. For the same compound, in the series on endogenous TFE3 (PKIS2 primary screening), the TFE3 % came to 9.12%. This compound yielded a TFEB % in the series on endogenous TFEB (PKIS2 primary screening) of 2.97%. For the same compound, the “Nuclear Count” value with SH-SY5Y cells [2] (PKIS2 primary screening) is given as 101.97. The AK in the series with SH-SY5Y cells [3] (PKIS2 primary screening) is reported as 125.64.
Take `CC(C)(C)c1ccc(-n2cnc3c(N)ncnc32)cc1` [UNC10225367A]: in the series on SH-SY5Y cells [1] (PKIS2 primary screening), the “DQ Intensity” value was determined as 128.98 and the “DQ Spot” value was 104.53. The compound also had a TFE3 % with endogenous TFE3 (PKIS2 primary screening) of 12.53%. The same compound came in with a TFEB % in the series on endogenous TFEB (PKIS2 primary screening) of 8.78%. Besides, in the series on SH-SY5Y cells [2] (PKIS2 primary screening), the “Nuclear Count” value came out at 71.05. The compound further gave an AK with SH-SY5Y cells [3] (PKIS2 primary screening) of 79.86.
Regarding `Cc1cn2c(=O)cc(N3CCOCC3)nc2n1Cc1cccc(Cl)c1Cl` [UNC10225415A], in the series with SH-SY5Y cells [1] (PKIS2 primary screening), the “DQ Intensity” value came out at 62.82 and the “DQ Spot” value was determined as 98.81. The compound further yielded a TFE3 % in the series with endogenous TFE3 (PKIS2 primary screening) of 10.27%. For the same compound, the TFEB % with endogenous TFEB (PKIS2 primary screening) is listed as 6.30%. Moreover, in the series on SH-SY5Y cells [2] (PKIS2 primary screening), the “Nuclear Count” value stood at 117.08. Moreover, the AK in the series with SH-SY5Y cells [3] (PKIS2 primary screening) is 43.75.
For `CC(C)Nc1cc(-c2ccc3c(N)n[nH]c3c2)nc(N)n1` [GSK2221681], the “DQ Intensity” value with SH-SY5Y cells [1] (setting [4]) worked out at 78.82. Also, in the series on SH-SY5Y cells [1] (setting [5]), the “DQ Spot” value is 81.03. In the series on endogenous TFE3 (PKIS2 primary screening), this compound yielded a TFE3 % of 7.71%. For the same compound, in the series on endogenous TFEB (PKIS2 primary screening), the TFEB % was found to be 4.14%. In addition, the “Nuclear Count” value in the series with SH-SY5Y cells [2] (PKIS2 primary screening) was 122.37. Further, the AK in the series on SH-SY5Y cells [3] (PKIS2 primary screening) is given as 98.58.
Turning to `CC(=O)c1cccc(NC(=O)NC2CCN(c3ccnc(Nc4ccc(F)cc4)n3)C2)c1` (stereo not drawn) [GSK1379710], in the series on SH-SY5Y cells [1] (setting [4]), the “DQ Intensity” value is 124.22. The “DQ Spot” value in the series on SH-SY5Y cells [1] (setting [5]) is recorded as 115.02. In the series with endogenous TFE3 (PKIS2 primary screening), this compound displayed a TFE3 % of 16.11%. In addition, the TFEB % with endogenous TFEB (PKIS2 primary screening) was 4.15%. Also, in the series with SH-SY5Y cells [2] (PKIS2 primary screening), the “Nuclear Count” value is reported as 98.98. Besides, the AK in the series on SH-SY5Y cells [3] (PKIS2 primary screening) is given as 70.15.
